In ChEMBL document CHEMBL1151757, “Synthesis, radiosynthesis, and biological evaluation of fluorine-18-labeled 2beta-carbo(fluoroalkoxy)-3beta-(3'-((Z)-2-haloethenyl)phenyl)nortropanes: candidate radioligands for in vivo imaging of the serotonin transporter with positron emission tomography” (J Med Chem, 2008):

Experiments:
[1] = system: Caudate; assay: Drug uptake in anesthetized cynomolgus monkey brain caudate after 175 mins postinjection; assay type: ADME, organism-based, Macaca fascicularis, Caudate nucleus; conditions: in vivo
[2] = Drug uptake in anesthetized cynomolgus monkey brain cerebellum after 105 mins postinjection; assay type: ADME, organism-based, Macaca fascicularis; conditions: in vivo, 1.75 h
[3] = Ratio of drug uptake in midbrain to cerebellum in anesthetized cynomolgus monkey after 18.5 mins postinjection; assay type: ADME, organism-based, Macaca fascicularis; conditions: in vivo
[4] = Ratio of drug uptake in occipital lobe to cerebellum in anesthetized cynomolgus monkey after 4.5 mins postinjection; assay type: ADME, organism-based, Macaca fascicularis; conditions: in vivo, 0.075 h
[5] = system: Pons; assay: Drug uptake in anesthetized cynomolgus monkey brain pons after 145 mins postinjection; assay type: ADME, organism-based, Macaca fascicularis; conditions: in vivo
[6] = Ratio of drug uptake in midbrain to cerebellum in anesthetized cynomolgus monkey after 9.5 mins postinjection; assay type: ADME, organism-based, Macaca fascicularis; conditions: in vivo
[7] = Ratio of drug uptake in midbrain to cerebellum in anesthetized cynomolgus monkey after 145 mins postinjection; assay type: ADME, organism-based, Macaca fascicularis; conditions: in vivo
[8] = Ratio of drug uptake in medulla to cerebellum in anesthetized cynomolgus monkey after 135 mins postinjection; assay type: ADME, organism-based, Macaca fascicularis; conditions: in vivo, 2.25 h
[9] = system: Medulla; assay: Drug uptake in anesthetized cynomolgus monkey brain medulla after 1.5 mins postinjection; assay type: ADME, organism-based, Macaca fascicularis; conditions: in vivo, 0.025 h
[10] = system: Medulla; assay: Drug uptake in anesthetized cynomolgus monkey brain medulla after 235 mins postinjection; assay type: ADME, organism-based, Macaca fascicularis; conditions: in vivo
[11] = system: Medulla; assay: Drug uptake in anesthetized cynomolgus monkey brain medulla after 185 mins postinjection; assay type: ADME, organism-based, Macaca fascicularis; conditions: in vivo
[12] = system: Pons; assay: Drug uptake in anesthetized cynomolgus monkey brain pons after 9.5 mins postinjection; assay type: ADME, organism-based, Macaca fascicularis; conditions: in vivo
[13] = Drug uptake in anesthetized cynomolgus monkey brain occipital lobe after 12.5 mins postinjection; assay type: ADME, organism-based, Macaca fascicularis; conditions: in vivo
[14] = Ratio of drug uptake in midbrain to cerebellum in anesthetized cynomolgus monkey after 85 mins postinjection; assay type: ADME, organism-based, Macaca fascicularis; conditions: in vivo
[15] = system: Medulla; assay: Drug uptake in anesthetized cynomolgus monkey brain medulla after 135 mins postinjection; assay type: ADME, organism-based, Macaca fascicularis; conditions: in vivo, 2.25 h
[16] = system: Midbrain; assay: Drug uptake in anesthetized cynomolgus monkey brain midbrain after 6.5 mins postinjection; assay type: ADME, organism-based, Macaca fascicularis; parameters: unit not given here; conditions: in vivo
[17] = system: Putamen; assay: Drug uptake in anesthetized cynomolgus monkey brain putamen after 4.5 mins postinjection; assay type: ADME, organism-based, Macaca fascicularis; parameters: unit not given here; conditions: in vivo, 0.075 h
[18] = Drug uptake in anesthetized cynomolgus monkey brain frontal lobe after 4.5 mins postinjection; assay type: ADME, organism-based, Macaca fascicularis; conditions: in vivo, 0.075 h
[19] = system: Medulla; assay: Drug uptake in anesthetized cynomolgus monkey brain medulla after 155 mins postinjection; assay type: ADME, organism-based, Macaca fascicularis; conditions: in vivo
[20] = system: Putamen; assay: Drug uptake in anesthetized cynomolgus monkey brain putamen after 0.5 mins postinjection; assay type: ADME, organism-based, Macaca fascicularis; conditions: in vivo
[21] = system: Thalamus; assay: Drug uptake in anesthetized cynomolgus monkey brain thalamus after 155 mins postinjection; assay type: ADME, organism-based, Macaca fascicularis; parameters: unit not given here; conditions: in vivo
[22] = Drug uptake in anesthetized cynomolgus monkey brain occipital lobe after 65 mins postinjection; assay type: ADME, organism-based, Macaca fascicularis; conditions: in vivo
[23] = system: Putamen; assay: Drug uptake in anesthetized cynomolgus monkey brain putamen after 18.5 mins postinjection; assay type: ADME, organism-based, Macaca fascicularis; parameters: unit not given here; conditions: in vivo
[24] = system: Midbrain; assay: Drug uptake in anesthetized cynomolgus monkey brain midbrain after 155 mins postinjection; assay type: ADME, organism-based, Macaca fascicularis; conditions: in vivo
[25] = Ratio of drug uptake in putamen to cerebellum in anesthetized cynomolgus monkey after 3.5 mins postinjection; assay type: ADME, organism-based, Macaca fascicularis; conditions: in vivo
[26] = Drug uptake in anesthetized cynomolgus monkey brain frontal lobe after 55 mins postinjection; assay type: ADME, organism-based, Macaca fascicularis; conditions: in vivo
[27] = Drug uptake in anesthetized cynomolgus monkey brain frontal lobe after 27.5 mins postinjection; assay type: ADME, organism-based, Macaca fascicularis; conditions: in vivo
[28] = Ratio of drug uptake in medulla to cerebellum in anesthetized cynomolgus monkey after 95 mins postinjection; assay type: ADME, organism-based, Macaca fascicularis; conditions: in vivo
[29] = Ratio of drug uptake in caudate to cerebellum in anesthetized cynomolgus monkey after 95 mins postinjection; assay type: ADME, organism-based, Macaca fascicularis; conditions: in vivo
[30] = Drug uptake in anesthetized cynomolgus monkey brain cerebellum after 125 mins postinjection; assay type: ADME, organism-based, Macaca fascicularis; conditions: in vivo
[31] = system: Putamen; assay: Drug uptake in anesthetized cynomolgus monkey brain putamen after 145 mins postinjection; assay type: ADME, organism-based, Macaca fascicularis; conditions: in vivo
[32] = Ratio of drug uptake in pons to cerebellum in anesthetized cynomolgus monkey after 215 mins postinjection; assay type: ADME, organism-based, Macaca fascicularis; conditions: in vivo
[33] = system: Caudate; assay: Drug uptake in anesthetized cynomolgus monkey brain caudate after 185 mins postinjection; assay type: ADME, organism-based, Macaca fascicularis, Caudate nucleus; conditions: in vivo
[34] = system: Thalamus; assay: Drug uptake in anesthetized cynomolgus monkey brain thalamus after 195 mins postinjection; assay type: ADME, organism-based, Macaca fascicularis; conditions: in vivo, 3.25 h
[35] = system: Thalamus; assay: Drug uptake in anesthetized cynomolgus monkey brain thalamus after 175 mins postinjection; assay type: ADME, organism-based, Macaca fascicularis; parameters: unit not given here; conditions: in vivo
[36] = Drug uptake in anesthetized cynomolgus monkey brain frontal lobe after 145 mins postinjection; assay type: ADME, organism-based, Macaca fascicularis; conditions: in vivo
[37] = Ratio of drug uptake in medulla to cerebellum in anesthetized cynomolgus monkey after 12.5 mins postinjection; assay type: ADME, organism-based, Macaca fascicularis; conditions: in vivo
[38] = system: Midbrain; assay: Drug uptake in anesthetized cynomolgus monkey brain midbrain after 205 mins postinjection; assay type: ADME, organism-based, Macaca fascicularis; conditions: in vivo
[39] = Drug uptake in anesthetized cynomolgus monkey brain frontal lobe after 22.5 mins postinjection; assay type: ADME, organism-based, Macaca fascicularis; conditions: in vivo, 0.375 h
[40] = system: Medulla; assay: Drug uptake in anesthetized cynomolgus monkey brain medulla after 4.5 mins postinjection; assay type: ADME, organism-based, Macaca fascicularis; conditions: in vivo, 0.075 h
[41] = system: Thalamus; assay: Drug uptake in anesthetized cynomolgus monkey brain thalamus after 18.5 mins postinjection; assay type: ADME, organism-based, Macaca fascicularis; parameters: unit not given here; conditions: in vivo
[42] = system: Midbrain; assay: Drug uptake in anesthetized cynomolgus monkey brain midbrain after 1.5 mins postinjection; assay type: ADME, organism-based, Macaca fascicularis; parameters: unit not given here; conditions: in vivo, 0.025 h
[43] = Ratio of drug uptake in pons to cerebellum in anesthetized cynomolgus monkey after 18.5 mins postinjection; assay type: ADME, organism-based, Macaca fascicularis; conditions: in vivo
[44] = Drug uptake in anesthetized cynomolgus monkey brain occipital lobe after 105 mins postinjection; assay type: ADME, organism-based, Macaca fascicularis; conditions: in vivo, 1.75 h
[45] = Ratio of drug uptake in medulla to cerebellum in anesthetized cynomolgus monkey after 0.5 mins postinjection; assay type: ADME, organism-based, Macaca fascicularis; conditions: in vivo
[46] = Drug uptake in anesthetized cynomolgus monkey brain occipital lobe after 18.5 mins postinjection; assay type: ADME, organism-based, Macaca fascicularis; conditions: in vivo
[47] = system: Midbrain; assay: Drug uptake in anesthetized cynomolgus monkey brain midbrain after 75 mins postinjection; assay type: ADME, organism-based, Macaca fascicularis; parameters: unit not given here; conditions: in vivo, 1.25 h
[48] = system: Medulla; assay: Drug uptake in anesthetized cynomolgus monkey brain medulla after 215 mins postinjection; assay type: ADME, organism-based, Macaca fascicularis; conditions: in vivo
[49] = Drug uptake in anesthetized cynomolgus monkey brain cerebellum after 45 mins postinjection; assay type: ADME, organism-based, Macaca fascicularis; conditions: in vivo, 0.75 h
[50] = system: Thalamus; assay: Drug uptake in anesthetized cynomolgus monkey brain thalamus after 185 mins postinjection; assay type: ADME, organism-based, Macaca fascicularis; conditions: in vivo

O=C(OCC[18F])C1C2CCC(CC1c1cccc(/C=C\Br)c1)N2 (stereo not given)
Drug uptake [1]: 3.29
Drug uptake [2]: 2.87
Ratio [3]: 1.2
Ratio [4]: 0.7
Drug uptake [5]: 4.16
Ratio [6]: 1.1
Ratio [7]: 2
Ratio [8]: 1.7
Drug uptake [9]: 0.08
Drug uptake [10]: 2.72
Drug uptake [11]: 3.61
Drug uptake [12]: 3.15
Drug uptake [13]: 2.68
Ratio [14]: 1.5
Drug uptake [15]: 4.21
Drug uptake [16]: 2.99
Drug uptake [17]: 1.72
Drug uptake [18]: 1.02
Drug uptake [19]: 3.83
Drug uptake [20]: 0.01
Drug uptake [21]: 3.64
Drug uptake [22]: 3.45
Drug uptake [23]: 4.37
Drug uptake [24]: 4.54
Ratio [25]: 0.9
Drug uptake [26]: 2.8
Drug uptake [27]: 2.69
Ratio [28]: 1.5
Ratio [29]: 1.4
Drug uptake [30]: 2.68
Drug uptake [31]: 4.21
Ratio [32]: 1.8
Drug uptake [33]: 3.28
Drug uptake [34]: 3.18
Drug uptake [35]: 3.36
Drug uptake [36]: 2.52
Ratio [37]: 1.2
Drug uptake [38]: 4
Drug uptake [39]: 2.54
Drug uptake [40]: 2.07
Drug uptake [41]: 3.32
Drug uptake [42]: 0.08
Ratio [43]: 1.1
Drug uptake [44]: 3.15
Ratio [45]: 0.6
Drug uptake [46]: 2.89
Drug uptake [47]: 4.96
Drug uptake [48]: 3.04
Drug uptake [49]: 3.76
Drug uptake [50]: 3.48
